Measured values: patent US11407760B2, “Dioxinoquinoline compounds, preparation method and uses thereof” (BEIJING SCITECH-MQ PHARMACEUTICALS LIMITED, priority 2018, dated 2022)

Experiments:
[1] = biological target: c-MET kinase (Homo sapiens (Human), UniProt P08581); assay: Assay of small molecular compounds for inhibiting the activity of c-MET kinase (LANCE TR-FRET); type: biochemical; conditions: c-MET tyrosine kinase, 60 min reaction
Method: Biological Example 1. Assay of Small Molecular Compounds for Inhibiting the Activity of c-MET Kinase
(§1) The assay is based on the LANCE TR-FRET technology of Perkin Elmer Inc., and the assay method is as follows:
(§2) 1. Dilution of compounds: a total of 11 concentrations were obtained using a 3-fold gradient dilution from the highest concentration of 2500 nM (the maximum final concentration of the drug used in this assay was 2500 nM, and the minimum final concentration was 0.042 nM).
(§3) 2. 2.5 μL of the gradient-diluted compounds were taken with a transfer pipette to a 384-well plate.
3. Addition of enzyme: 5 μL of 2× c-MET kinase solution (concentration was 2 nM) was taken with a transfer pipette to the corresponding reaction well of the 384-well plate, mixed well and pre-reacted at room temperature for 5 minutes.
4. 2.5 μL 4× Ultra ULight™-JAK-1 (Tyr1023) Peptide (concentration was 400 nM)/ATP (concentration was 40 μM) mixture was taken with a transfer pipette to the corresponding reaction well of the 384-well plate.
(§4) 5. Negative control: 2.5 μL/well 4× substrate/ATP mixture and 7.5 μL 1× Kinase Assay Buffer were added to the wells of the 384-well plate.
6. Positive control: 2.5 μL/well 4× substrate/ATP mixture, 2.5 μL/well 1× Kinase Assay Buffer containing 16% DMSO, and 5 µL/well 2× c-MET kinase solution were added to the 384-well plate. The final concentration of DMSO in the reaction system was 4%.
(§5) 7. The mixture was mixed well and then centrifuged and reacted at room temperature in dark for 60 min.
(§6) 8. Termination of the enzymatic reaction: 5 μL of 4× stop solution was taken with a transfer pipette to the wells of the 384-well plate, mixed and then centrifuged, and reacted at room temperature for 5 min.
(§7) 9. Development of the reaction: 5 μL of 4× detection solution was taken with a transfer pipette to the wells of the 384-well plate for color development, and the mixture was mixed and then centrifuged and reacted at room temperature for 60 min.
(§8) 10. The 384-well plate was placed into the Envision plate reader and the signal was detected using the appropriate program.
11. […]

[2] = biological target: VEGFR-2 kinase (Homo sapiens (Human), UniProt P35968); assay: Assay of small molecular compounds for inhibiting the activity of VEGFR-2 kinase (LANCE TR-FRET); type: biochemical; conditions: VEGFR-2 tyrosine kinase, 60 min reaction
Chain of VEGFR-2 kinase (P35968 20-1356): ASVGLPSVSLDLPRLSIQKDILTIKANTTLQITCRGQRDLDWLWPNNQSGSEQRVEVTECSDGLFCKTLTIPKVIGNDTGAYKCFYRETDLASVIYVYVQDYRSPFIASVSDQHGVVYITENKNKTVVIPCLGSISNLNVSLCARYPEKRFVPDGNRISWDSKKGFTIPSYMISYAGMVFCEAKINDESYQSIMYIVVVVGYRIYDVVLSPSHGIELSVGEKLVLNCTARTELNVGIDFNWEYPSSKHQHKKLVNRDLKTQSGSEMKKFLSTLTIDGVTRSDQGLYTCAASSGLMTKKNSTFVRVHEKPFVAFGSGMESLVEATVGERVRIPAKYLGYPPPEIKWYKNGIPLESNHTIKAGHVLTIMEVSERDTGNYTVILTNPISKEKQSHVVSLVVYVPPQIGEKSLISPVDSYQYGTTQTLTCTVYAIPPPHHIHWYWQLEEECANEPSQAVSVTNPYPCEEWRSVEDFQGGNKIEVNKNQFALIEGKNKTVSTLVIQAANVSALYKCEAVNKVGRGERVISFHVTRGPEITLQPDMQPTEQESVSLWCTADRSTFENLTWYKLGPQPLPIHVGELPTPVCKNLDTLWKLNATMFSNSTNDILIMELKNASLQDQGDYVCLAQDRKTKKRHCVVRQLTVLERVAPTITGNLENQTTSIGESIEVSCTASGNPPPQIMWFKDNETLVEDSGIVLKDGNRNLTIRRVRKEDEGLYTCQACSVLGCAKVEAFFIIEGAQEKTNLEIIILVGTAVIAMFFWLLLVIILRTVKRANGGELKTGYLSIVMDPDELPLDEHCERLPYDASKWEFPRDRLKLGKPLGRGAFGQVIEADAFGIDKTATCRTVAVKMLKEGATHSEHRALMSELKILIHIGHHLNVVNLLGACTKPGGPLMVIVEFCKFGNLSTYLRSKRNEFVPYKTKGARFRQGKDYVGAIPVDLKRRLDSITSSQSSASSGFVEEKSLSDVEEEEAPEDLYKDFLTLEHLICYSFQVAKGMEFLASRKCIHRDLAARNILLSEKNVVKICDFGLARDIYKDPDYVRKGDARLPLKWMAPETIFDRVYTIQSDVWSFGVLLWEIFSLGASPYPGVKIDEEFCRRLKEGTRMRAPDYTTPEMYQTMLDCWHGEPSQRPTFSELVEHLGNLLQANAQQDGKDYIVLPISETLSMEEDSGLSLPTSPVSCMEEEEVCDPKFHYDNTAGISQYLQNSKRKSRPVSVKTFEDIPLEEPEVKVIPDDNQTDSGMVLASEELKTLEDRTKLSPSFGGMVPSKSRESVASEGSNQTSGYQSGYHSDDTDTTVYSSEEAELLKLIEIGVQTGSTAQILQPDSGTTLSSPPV
Method: Biological Example 2. Assay of Small Molecular Compounds for Inhibiting the Activity of VEGFR-2 Kinase
as §1, §2, §3
3. Addition of enzyme: 5 μL of 2× VEGFR-2 kinase solution (concentration was 0.5 nM) was taken with a transfer pipette to the corresponding reaction well of the 384-well plate, mixed well and pre-reacted at room temperature for 30 minutes.
4. 2.5 μL 4× Ultra ULight™-JAK-1 (Tyr1023) Peptide (concentration was 200 nM)/ATP (concentration was 40 μM) mixture was taken with a transfer pipette to the corresponding reaction well of the 384-well plate.
as §4
6. Positive control: 2.5 μL/well 4× substrate/ATP mixture, 2.5 μL/well 1× Kinase Assay Buffer containing 16% DMSO, and 5 μL/well 2× VEGFR-2 kinase solution were added to the 384-well plate. The final concentration of DMSO in the reaction system was 4%.
as §5, §6, §7, §8
11. Analysis and processing of the raw data:
The drug concentrations and the corresponding inhibition rates were input into GraphPad Prism5 for calculation, and the inhibition rate of the compounds were calculated as follows: inhibition rate (%)=(reading of positive well−reading of experimental well)/(reading of positive control well−reading of negative control well)×100%. Processing with GraphPad Prism5 software yielded the corresponding IC50 values (the concentration of the compound at which 50% of the highest inhibition of the enzyme is achieved).

[3] = system: MHCC97H cells; assay: Inhibitory activity on the proliferation of MHCC97H cells (CCK-8); type: cell-based; conditions: Homo sapiens, MHCC97H cell proliferation, 72 hours of incubation
Method: Biological Example 3. Assay of the Inhibitory Activity of Small Molecular Compounds on the Proliferation of MHCC97H Cells
The specific steps of the assay are as follows:
1. Dilution of compounds: a total of 9 concentrations were obtained using a 3-fold gradient dilution from the highest concentration of 5000 nM (the maximum final concentration of the drug used in this assay was 5000 nM, and the minimum final concentration was 0.76 nM).
2. MHCC97H cells were collected, then transferred to a 15 mL centrifuge tube, and centrifuged at 1000 rpm for 5 minutes.
3. The supernatant was discarded, and the complete medium was added and pipetted evenly, 10 μL of cell suspension was taken out and mixed evenly with 10 μL of 0.4% trypan blue, the counting was carried out with a cell counter, and the number and survival rate of cells were recorded;
4. The cell suspension was seeded into a 96-well plate at 5000 cells/80 μL per well;
5. 20 μL of the corresponding 5× compound solution diluted with the medium mentioned above was added to each well and mixed evenly;
6. After 72 hours of incubation, 10 μL of CCK-8 reagent was added to each well and incubated for another 2 hours (the reaction time can be adjusted according to the color depth);
7. The OD value was read at 450 nm on a multi-function plate reader.
8. Data processing: cell survival rate (%)=[(As−Ab)/(Ac−Ab)]*100%
As: OD value of assay well (medium containing cells, CCK-8, compound),
Ac: OD value of control well (medium containing cells, CCK-8),
Ab: OD value of blank well (CCK-8, medium without cell and compound),
The values were then imported into Graphpad Prism5 software for curve fitting, and IC50 was calculated.
Table 3 lists the assay results of the inhibitory activity of some compounds disclosed herein on the proliferation of the MHCC97H cell line.

Chain of c-MET kinase (P08581 25-1390): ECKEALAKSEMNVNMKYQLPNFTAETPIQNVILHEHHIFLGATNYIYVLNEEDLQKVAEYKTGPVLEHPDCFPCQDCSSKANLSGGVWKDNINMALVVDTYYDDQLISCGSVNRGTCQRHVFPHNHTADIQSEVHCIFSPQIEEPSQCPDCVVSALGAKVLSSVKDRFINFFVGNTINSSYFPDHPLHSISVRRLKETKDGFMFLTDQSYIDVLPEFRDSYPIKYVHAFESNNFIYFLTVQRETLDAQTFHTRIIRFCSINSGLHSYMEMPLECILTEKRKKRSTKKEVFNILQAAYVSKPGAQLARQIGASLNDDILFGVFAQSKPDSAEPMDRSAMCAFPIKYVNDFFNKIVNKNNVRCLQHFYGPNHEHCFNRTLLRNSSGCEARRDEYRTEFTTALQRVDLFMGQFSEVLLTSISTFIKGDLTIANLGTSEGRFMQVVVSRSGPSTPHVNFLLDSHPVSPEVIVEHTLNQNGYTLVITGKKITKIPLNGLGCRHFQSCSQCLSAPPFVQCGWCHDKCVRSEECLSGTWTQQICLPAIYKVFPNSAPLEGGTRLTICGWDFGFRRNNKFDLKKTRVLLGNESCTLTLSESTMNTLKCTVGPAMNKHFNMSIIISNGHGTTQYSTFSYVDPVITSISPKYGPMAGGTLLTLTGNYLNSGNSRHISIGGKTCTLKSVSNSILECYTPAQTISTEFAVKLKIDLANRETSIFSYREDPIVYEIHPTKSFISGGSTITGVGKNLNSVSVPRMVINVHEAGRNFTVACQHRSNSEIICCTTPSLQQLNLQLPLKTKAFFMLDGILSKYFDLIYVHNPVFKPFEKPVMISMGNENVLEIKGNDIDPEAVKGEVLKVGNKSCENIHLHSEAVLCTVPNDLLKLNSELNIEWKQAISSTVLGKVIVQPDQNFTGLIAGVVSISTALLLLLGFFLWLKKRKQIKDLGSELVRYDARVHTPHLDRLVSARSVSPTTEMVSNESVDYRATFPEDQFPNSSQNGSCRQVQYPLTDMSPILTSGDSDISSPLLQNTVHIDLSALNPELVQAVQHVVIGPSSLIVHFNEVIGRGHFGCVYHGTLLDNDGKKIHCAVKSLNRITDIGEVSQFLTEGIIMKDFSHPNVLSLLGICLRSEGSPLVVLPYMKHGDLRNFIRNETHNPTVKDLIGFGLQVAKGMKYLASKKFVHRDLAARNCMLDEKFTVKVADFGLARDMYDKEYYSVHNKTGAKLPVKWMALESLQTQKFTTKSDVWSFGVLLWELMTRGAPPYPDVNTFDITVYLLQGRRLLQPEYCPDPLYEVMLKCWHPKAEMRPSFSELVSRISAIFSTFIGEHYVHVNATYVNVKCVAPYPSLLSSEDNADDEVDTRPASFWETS

IC50 [1] | IC50 [2] | Compound | IC50 [3]
≤ 50 nM | ≤ 50 nM | CC(=O)N1CCN(CCCOc2cc3nccc(Oc4ccc(NC(=O)C5(C(=O)Nc6ccc(F)cc6)CC5)cc4F)c3c3c2OCCO3)CC1 [Example 19] | < 50 nM
50 to 500 nM |  | O=C(Nc1ccc(F)cc1)C1(C(=O)Nc2ccc(Oc3ccnc4cc(OCC5CC5)c5c(c34)OCCO5)c(F)c2)CC1 [Example 11, N-(4-((5-(cyclopropylmethoxy)-2,3-dihydro-[1,4]dioxino[2,3-f]quinolin-10-yl)oxy)-3-fluorophenyl)-N-(4-fluorophenyl)cyclopropan-1,1-dicarboxamide] | 
50 to 500 nM |  | CC(C)COc1cc2nccc(Oc3ccc(NC(=O)C4(C(=O)Nc5ccc(F)cc5)CC4)cc3F)c2c2c1OCCO2 [Example 12, N-(4-((5-(isobutyloxy)-2,3-dihydro-[1,4]dioxino[2,3-f]quinolin-10-yl)oxy)-3-fluorophenyl)-N-(4-fluorophenyl)cyclopropan-1,1-dicarboxamide] | 
 | 50 to 500 nM | N#CCOc1cc2nccc(Oc3ccc(NC(=O)C4(C(=O)Nc5ccc(F)cc5)CC4)cc3F)c2c2c1OCCO2 [Example 20, N-(4-((5-(cyanomethoxy)-2,3-dihydro-[1,4]dioxino[2,3-f]quinolin-10-yl)oxy)-3-fluorophenyl)-N-(4-fluorophenyl)cyclopropan-1,1-dicarboxamide] | < 50 nM
 | 50 to 500 nM | O=C(Nc1ccc(F)cc1)C1(C(=O)Nc2ccc(Oc3ccnc4cc(OCCCN5CCOCC5)c5c(c34)OCCO5)cc2Cl)CC1 [Example 36, N-(2-chloro-4-((5-(3-morpholinopropoxy)-2,3-dihydro-[1,4]dioxino[2,3-f]quinolin-10-yl)oxy)phenyl)-N-(4-fluorophenyl)cyclopropan-1,1-dicarboxamide] | < 50 nM
 | 50 to 500 nM | O=C(Nc1ccc(F)cc1)C1(C(=O)Nc2ccc(Oc3ccnc4cc(OC5CCOCC5)c5c(c34)OCCO5)c(F)c2)CC1 [Example 18, N-(3-fluoro-4-((5-((tetrahydropyran-4-yl)oxy)-2,3-dihydro-[1,4]dioxino[2,3-f]quinolin-10-yl)oxy)phenyl)-N-(4-fluorophenyl)cyclopropan-1,1-dicarboxamide] | 
 |  | O=C(Nc1ccc(F)cc1)C1(C(=O)Nc2ccc(Oc3ccnc4cc(OCCCN5CCCCC5)c5c(c34)OCCO5)c(F)c2)CC1 [Example 9, N-(4-((5-(3-(piperidin-1-yl)propoxy)-2,3-dihydro-[1,4]dioxino[2,3-f]quinolin-10-yl)oxy)-3-fluorophenyl)-N-(4-fluorophenyl)cyclopropan-1,1-dicarboxamide] | < 50 nM
 |  | COc1cc2nccc(Oc3ccc(NC(=O)C4(C(=O)Nc5ccc(F)cc5)CC4)cc3F)c2c2c1OCCO2 [Example 2, N-(3-fluoro-4-((5-methoxy-2,3-dihydro-[1,4]dioxino[2,3-f]quinolin-10-yl)oxy)phenyl)-N-(4-fluorophenyl)cyclopropan-1,1-dicarboxamide] | < 50 nM
 |  | O=C(Nc1ccc(F)cc1)C1(C(=O)Nc2ccc(Oc3ccnc4cc(OCCCN5CCS(=O)(=O)CC5)c5c(c34)OCCO5)c(F)c2)CC1 [Example 24, N-(4-((5-(3-(1,1-dioxothiomorpholin-4-yl)propoxy)-2,3-dihydro-[1,4]dioxino[2,3-f]quinolin-10-yl)oxy)-3-fluorophenyl)-N-(4-fluorophenyl)cyclopropan-1,1-dicarboxamide] | < 50 nM
